Source: ChEMBL document CHEMBL1201862, “PubChem BioAssay data set” (2004)
Structures can show the parent of a compound that is named as a salt. The source made the active and inactive calls.

How the values were obtained:
[1] = ADAM10 protease inhibitors, dose response, selectivity assay for ADAM17 exosite inhibitor project, biochemical, FRET peptide substrate, recombinant human ADAM10 (AID 743259);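 also: ADAM10 enzyme cleaving a FRET peptide substrate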
[2] = HeLa cell cytotoxicity, dose response, cytotoxicity control for MgcRacGAP inhibitor project (AID 624300); assay type: functional
[3] = target: T1, Rac GTPase-activating protein 1 (Homo sapiens, UniProt Q9H0H5); test: MgcRacGAP GTPase-activating activity inhibitors, confirmation, biochemical, ADP Hunter fluorescence, primary and confirmatory (AID 624330); assay type: functional
T1 sequence (Q9H0H5 whole entry): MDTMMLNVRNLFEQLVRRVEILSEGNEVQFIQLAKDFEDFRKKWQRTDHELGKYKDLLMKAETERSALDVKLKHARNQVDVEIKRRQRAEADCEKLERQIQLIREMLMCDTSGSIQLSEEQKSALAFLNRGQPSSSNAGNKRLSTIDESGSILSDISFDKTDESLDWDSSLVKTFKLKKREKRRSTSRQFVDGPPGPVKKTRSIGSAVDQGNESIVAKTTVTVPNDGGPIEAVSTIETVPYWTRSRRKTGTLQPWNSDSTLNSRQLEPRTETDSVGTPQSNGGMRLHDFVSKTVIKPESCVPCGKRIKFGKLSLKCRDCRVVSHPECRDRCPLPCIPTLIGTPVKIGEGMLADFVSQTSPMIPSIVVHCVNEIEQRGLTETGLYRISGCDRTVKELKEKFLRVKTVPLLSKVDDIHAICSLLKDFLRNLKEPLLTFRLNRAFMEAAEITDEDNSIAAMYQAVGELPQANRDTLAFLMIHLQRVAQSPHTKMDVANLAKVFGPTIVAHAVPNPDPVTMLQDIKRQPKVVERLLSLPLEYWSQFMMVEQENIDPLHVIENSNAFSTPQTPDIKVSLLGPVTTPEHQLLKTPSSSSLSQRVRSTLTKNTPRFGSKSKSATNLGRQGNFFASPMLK

[4] = target: T2, Fatty acid synthase (Homo sapiens, UniProt P49327); test: FAS thioesterase domain inhibitors, dose response, biochemical, kinetic fluorescence intensity (AID 624326); assay type: functional;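 also: rate of fluorescence rise from hydrolysis of a fluorogenic O-methyl fluorescein ester substrate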
[5] = target: T2, Fatty acid synthase; test: FAS thioesterase domain inhibitors, dose response, biochemical, endpoint fluorescence intensity, uHTS hits (AID 624327); assay type: functional;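 also: fluorescence from hydrolysis of an O-methyl fluorescein acyl ester substrate by the enzyme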
[6] = tested on: H4; test: Luminescence Cell-Based Dose Response HTS to Identify Activators of 5'UTR Stem-Loop Driven Prion Protein mRNA Translation in H4 Neuroglioblastoma Cells. [Related pubchem assays: 1829 (Project Summary), 1814 (Primary HTS)]; assay type: functional; settings: Homo sapiens
[7] = Luminescence Cell-Based Dose Confirmation HTS to Identify Activators of 5'UTR Stem-Loop Driven Alpha-Synuclein mRNA Translation in H4 Neuroglioblastoma Cells. [Related pubchem assays: 1829 (Project Summary), 1814 (Primary HTS)]; assay type: functional
[8] = Luminescence Cell-Based Dose Response HTS to Identify Activators of Luciferase Translation or Activity in H4 […] Cells. [Related pubchem assays: 1829 (Project Summary), 1814 (Primary HTS)]; assay type: functional
[9] = target: T3, Histone-lysine N-methyltransferase NSD2 (Homo sapiens, UniProt O96028); assay type: biochemical
T3 sequence (O96028 whole entry): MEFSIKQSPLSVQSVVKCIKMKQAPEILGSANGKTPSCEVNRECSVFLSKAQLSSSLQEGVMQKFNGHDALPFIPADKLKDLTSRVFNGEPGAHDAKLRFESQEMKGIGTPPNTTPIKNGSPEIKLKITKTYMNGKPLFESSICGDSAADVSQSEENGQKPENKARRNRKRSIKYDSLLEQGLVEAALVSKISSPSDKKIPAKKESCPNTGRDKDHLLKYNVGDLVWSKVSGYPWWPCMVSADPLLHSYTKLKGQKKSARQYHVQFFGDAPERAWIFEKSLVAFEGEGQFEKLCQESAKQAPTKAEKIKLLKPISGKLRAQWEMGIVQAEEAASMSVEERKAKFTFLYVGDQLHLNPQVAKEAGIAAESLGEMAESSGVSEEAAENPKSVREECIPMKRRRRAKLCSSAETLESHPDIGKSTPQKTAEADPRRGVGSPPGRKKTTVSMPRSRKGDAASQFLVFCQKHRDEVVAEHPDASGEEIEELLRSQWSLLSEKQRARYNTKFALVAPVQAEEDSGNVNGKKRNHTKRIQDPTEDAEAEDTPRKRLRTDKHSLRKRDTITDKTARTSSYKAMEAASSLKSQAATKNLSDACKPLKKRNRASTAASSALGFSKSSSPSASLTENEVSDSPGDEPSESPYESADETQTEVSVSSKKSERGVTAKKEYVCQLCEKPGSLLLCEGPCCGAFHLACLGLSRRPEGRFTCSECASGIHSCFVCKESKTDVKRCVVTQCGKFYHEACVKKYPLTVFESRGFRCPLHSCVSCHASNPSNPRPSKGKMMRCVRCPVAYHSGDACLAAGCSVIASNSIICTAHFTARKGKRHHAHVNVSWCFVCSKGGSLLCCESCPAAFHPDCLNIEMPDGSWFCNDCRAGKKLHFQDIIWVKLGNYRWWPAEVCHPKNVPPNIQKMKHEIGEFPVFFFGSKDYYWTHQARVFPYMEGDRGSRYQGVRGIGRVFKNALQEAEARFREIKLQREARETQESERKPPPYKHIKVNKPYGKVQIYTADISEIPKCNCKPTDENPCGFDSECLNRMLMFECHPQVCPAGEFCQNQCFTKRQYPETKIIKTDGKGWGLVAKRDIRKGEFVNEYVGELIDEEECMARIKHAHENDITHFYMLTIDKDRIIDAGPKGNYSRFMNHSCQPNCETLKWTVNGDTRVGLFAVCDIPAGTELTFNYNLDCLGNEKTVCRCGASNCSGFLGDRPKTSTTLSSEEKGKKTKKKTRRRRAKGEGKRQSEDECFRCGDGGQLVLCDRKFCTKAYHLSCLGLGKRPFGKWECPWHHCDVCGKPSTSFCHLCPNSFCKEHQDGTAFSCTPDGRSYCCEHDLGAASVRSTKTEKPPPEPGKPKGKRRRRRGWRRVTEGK

[10] = target: T4, Small ubiquitin-related modifier 1 (Homo sapiens, UniProt P63165); test: inhibitors of SUMO1 partner interactions, dose response, biochemical, FRET (AID 624383); assay type: functional; settings: read-out: IC50_Mean
[11] = target: T5, DNA repair and recombination protein RAD54-like (Homo sapiens, UniProt Q92698); test: inhibitors of human RAD54 branch migration, confirmation, biochemical, fluorescence, cherry-picked samples, dose series (AID 651657); assay type: functional
T5 sequence (Q92698 whole entry): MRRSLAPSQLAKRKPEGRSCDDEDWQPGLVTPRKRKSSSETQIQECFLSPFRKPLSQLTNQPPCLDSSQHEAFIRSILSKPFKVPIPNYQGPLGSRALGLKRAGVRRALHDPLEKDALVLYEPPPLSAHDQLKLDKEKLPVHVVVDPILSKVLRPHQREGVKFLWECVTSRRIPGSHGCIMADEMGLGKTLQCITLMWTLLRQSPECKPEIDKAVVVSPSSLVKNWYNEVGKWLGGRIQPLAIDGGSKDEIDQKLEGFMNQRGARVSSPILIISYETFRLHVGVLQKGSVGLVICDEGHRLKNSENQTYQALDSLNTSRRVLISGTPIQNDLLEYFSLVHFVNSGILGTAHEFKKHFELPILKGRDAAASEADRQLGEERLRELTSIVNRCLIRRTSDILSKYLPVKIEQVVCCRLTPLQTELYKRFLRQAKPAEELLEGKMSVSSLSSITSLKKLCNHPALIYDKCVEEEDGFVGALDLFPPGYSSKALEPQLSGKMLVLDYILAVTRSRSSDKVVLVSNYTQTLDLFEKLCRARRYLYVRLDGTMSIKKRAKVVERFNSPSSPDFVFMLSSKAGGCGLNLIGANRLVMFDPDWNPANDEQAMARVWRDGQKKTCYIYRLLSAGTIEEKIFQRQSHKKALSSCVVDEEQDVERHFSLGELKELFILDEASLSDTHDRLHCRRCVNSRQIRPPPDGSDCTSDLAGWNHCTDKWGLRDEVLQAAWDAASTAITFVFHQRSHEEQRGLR

[12] = target: T6, DNA repair protein RAD52 homolog (Homo sapiens, UniProt P43351); assay type: functional, biochemical
T6 sequence (P43351 whole entry): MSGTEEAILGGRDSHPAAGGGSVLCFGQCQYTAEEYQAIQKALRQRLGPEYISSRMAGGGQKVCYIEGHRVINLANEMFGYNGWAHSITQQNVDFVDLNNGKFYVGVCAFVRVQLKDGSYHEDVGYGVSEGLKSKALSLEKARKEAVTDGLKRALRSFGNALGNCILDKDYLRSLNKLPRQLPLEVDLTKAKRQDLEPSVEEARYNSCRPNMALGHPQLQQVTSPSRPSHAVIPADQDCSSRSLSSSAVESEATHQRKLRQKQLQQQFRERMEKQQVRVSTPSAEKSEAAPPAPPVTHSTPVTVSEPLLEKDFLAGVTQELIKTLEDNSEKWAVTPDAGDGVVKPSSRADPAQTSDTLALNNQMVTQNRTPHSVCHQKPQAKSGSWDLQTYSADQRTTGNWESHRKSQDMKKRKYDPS

[13] = target: T4, Small ubiquitin-related modifier 1; test: inhibitors of SUMO1 peptide binding, dose response, biochemical, fluorescence polarization, uHTS hits (AID 624382); assay type: functional; settings: read-out: IC50_Mean
[14] = HepG2 cell cytotoxicity, dose response, cytotoxicity control, ATP luminescence, cherry-pick, activator set 2 (AID 1053143); assay type: functional, cell-based
[15] = target: Disintegrin and metalloproteinase domain-containing protein 17 (Homo sapiens, UniProt P78536); test: exosite inhibitors of ADAM17, dose response, biochemical (AID 743260)
[16] = T. cruzi growth inhibition in host cells, dose response, cell-based, plate reader, dry powder, set 2 (AID 652275); assay type: functional
[17] = Luminescence Cell-Based Dose Retest to Confirm Inhibitors of Cancer Stem Cells. [Related pubchem assays (depositor defined):AID2717, AID2721]; assay type: functional; settings: Homo sapiens
[18] = A549 cell cytotoxicity, dose response, cytotoxicity control, plate reader, cherry-pick, antagonist series (AID 743412); assay type: functional, cell-based
[19] = target: T7, Ubiquitin-conjugating enzyme E2 N (Homo sapiens, UniProt P61088); assay type: functional;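 also: Dose-response confirmation in a TR-FRET assay detecting UBC13-driven polyubiquitin chain formation, inhibition measured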
T7 sequence (P61088 whole entry): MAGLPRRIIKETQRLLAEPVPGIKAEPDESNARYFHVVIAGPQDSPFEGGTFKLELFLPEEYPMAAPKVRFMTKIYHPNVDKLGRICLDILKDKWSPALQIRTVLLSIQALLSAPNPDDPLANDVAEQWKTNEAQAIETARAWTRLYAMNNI

[20] = HEK293 cell cytotoxicity, dose response, cytotoxicity control, plate reader, cherry-picked samples (AID 743446); assay type: functional, cell-based
[21] = inhibitors of PGC1a acetylation in cells, dose response, cell-based, cherry-picked samples (AID 720514); assay type: functional;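 also: potency may reflect raised or lowered acetylation signal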
[22] = MC4R antagonists, dose response, counter-screen for LGR2 antagonist project, cell-based, plate reader, cherry pick (AID 743444); assay type: functional
[23] = HepG2 cell cytotoxicity, dose response, cytotoxicity control, plate reader, cherry-pick, antagonist series (AID 743416); assay type: functional, cell-based
[24] = LGR2 antagonists, dose response, cell-based, HEK293, CRE-luciferase reporter, cherry pick, set 2 (AID 743343); assay type: functional;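 also: transfected cells were stimulated with diluted bursicon conditioned medium after compound addition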

T2 sequence (P49327 whole entry, the tested form may be a part): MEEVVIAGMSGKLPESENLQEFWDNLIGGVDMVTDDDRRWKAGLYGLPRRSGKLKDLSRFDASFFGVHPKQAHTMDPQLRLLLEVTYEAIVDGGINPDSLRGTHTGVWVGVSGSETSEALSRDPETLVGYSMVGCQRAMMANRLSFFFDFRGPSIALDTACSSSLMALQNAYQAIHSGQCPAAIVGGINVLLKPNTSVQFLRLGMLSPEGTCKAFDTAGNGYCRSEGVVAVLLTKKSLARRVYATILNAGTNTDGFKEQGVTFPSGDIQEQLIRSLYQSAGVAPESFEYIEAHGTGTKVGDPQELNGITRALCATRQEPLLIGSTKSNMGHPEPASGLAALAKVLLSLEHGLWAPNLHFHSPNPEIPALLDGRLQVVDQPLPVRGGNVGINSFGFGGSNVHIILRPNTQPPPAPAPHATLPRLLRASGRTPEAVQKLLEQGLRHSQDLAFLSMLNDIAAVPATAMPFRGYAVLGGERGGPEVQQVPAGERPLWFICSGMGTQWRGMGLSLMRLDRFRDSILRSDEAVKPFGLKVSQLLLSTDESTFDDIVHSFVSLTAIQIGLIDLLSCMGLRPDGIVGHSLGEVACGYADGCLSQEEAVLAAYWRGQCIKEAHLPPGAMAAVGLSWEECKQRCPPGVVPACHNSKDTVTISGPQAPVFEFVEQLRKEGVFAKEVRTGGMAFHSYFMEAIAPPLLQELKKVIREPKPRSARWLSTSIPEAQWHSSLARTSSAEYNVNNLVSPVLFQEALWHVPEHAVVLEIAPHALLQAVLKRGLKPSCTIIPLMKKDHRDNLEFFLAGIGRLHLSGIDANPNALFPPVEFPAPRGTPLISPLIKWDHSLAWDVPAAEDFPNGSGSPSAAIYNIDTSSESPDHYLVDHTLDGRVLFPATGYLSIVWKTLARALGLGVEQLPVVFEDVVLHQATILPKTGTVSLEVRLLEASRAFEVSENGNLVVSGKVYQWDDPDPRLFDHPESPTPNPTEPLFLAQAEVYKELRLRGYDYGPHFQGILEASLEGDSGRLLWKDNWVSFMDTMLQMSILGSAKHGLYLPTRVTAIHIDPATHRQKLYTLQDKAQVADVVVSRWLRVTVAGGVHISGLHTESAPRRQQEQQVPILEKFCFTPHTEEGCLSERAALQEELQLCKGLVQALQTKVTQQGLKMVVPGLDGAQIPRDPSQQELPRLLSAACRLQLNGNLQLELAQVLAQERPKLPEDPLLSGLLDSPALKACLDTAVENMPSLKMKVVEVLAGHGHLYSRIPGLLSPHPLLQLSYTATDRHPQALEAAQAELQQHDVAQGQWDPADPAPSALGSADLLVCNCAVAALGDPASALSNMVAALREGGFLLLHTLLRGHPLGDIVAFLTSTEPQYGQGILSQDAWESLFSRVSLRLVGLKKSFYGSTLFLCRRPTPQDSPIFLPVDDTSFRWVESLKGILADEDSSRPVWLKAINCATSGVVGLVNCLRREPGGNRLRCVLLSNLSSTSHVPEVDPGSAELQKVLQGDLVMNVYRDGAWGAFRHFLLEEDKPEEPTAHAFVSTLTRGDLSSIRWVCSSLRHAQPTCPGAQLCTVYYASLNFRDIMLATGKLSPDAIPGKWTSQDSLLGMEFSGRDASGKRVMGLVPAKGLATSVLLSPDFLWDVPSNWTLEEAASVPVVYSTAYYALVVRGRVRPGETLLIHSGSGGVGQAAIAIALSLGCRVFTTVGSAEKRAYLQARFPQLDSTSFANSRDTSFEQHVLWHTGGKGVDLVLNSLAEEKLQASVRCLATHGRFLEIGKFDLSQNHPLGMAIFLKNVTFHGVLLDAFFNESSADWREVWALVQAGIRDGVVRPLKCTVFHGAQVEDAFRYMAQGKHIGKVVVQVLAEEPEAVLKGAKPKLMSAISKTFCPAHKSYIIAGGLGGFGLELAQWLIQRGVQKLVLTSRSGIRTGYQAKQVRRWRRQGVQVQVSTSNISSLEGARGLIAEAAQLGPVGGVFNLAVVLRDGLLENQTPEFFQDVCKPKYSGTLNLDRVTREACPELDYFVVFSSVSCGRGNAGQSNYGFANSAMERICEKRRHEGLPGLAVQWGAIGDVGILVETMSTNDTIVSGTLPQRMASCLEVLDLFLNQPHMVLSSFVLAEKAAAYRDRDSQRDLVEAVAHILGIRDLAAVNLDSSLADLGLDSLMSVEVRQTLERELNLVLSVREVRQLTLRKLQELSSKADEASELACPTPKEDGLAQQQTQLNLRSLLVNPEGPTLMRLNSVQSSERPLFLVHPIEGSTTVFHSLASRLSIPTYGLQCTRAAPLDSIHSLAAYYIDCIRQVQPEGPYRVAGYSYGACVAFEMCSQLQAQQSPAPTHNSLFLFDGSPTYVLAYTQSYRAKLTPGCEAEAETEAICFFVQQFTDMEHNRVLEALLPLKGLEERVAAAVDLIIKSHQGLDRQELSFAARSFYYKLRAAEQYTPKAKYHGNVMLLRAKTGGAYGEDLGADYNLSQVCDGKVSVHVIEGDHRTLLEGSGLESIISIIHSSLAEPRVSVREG
T4 sequence (P63165 whole entry): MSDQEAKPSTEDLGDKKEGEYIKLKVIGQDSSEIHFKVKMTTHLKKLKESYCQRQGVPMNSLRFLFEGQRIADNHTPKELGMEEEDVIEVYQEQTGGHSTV
Sequence of Disintegrin and metalloproteinase domain-containing protein 17 (P78536 whole entry, the tested form may be a part): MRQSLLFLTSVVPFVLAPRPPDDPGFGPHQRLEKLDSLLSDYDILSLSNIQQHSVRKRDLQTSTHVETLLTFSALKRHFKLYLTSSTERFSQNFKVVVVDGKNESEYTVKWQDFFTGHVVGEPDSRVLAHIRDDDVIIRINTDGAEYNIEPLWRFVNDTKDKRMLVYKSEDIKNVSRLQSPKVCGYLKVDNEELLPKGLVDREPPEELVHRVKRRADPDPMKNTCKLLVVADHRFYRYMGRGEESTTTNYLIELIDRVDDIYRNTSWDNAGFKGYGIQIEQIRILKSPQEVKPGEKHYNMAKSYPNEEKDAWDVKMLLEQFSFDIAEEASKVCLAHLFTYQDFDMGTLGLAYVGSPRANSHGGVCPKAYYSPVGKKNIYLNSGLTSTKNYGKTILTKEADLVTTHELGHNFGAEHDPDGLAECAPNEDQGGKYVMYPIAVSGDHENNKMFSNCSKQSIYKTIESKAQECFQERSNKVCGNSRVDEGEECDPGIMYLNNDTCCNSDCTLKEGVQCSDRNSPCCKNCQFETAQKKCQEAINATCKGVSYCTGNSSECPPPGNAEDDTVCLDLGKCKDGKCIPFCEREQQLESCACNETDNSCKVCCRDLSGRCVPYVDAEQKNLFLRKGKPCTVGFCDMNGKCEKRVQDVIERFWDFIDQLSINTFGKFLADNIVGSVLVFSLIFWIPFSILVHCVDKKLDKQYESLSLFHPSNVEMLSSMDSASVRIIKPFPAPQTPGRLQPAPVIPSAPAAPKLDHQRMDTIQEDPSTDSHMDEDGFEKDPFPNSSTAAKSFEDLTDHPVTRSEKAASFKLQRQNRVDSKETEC

COc1cc(C(c2c(C)n[nH]c2O)c2c(C)n[nH]c2O)ccc1OCc1ccc([N+](=O)[O-])cc1
IC50 [1]: > 23.2 µM (inactive)

COc1ccc(N2CCN(CC(O)COC(c3ccc(F)cc3)c3ccc(F)cc3)CC2)cc1 (stereo not given)
CC50 [2]: 100 µM (active)
IC50 [3]: 92.8 µM (active)

CN(Cc1ccccc1)C(=O)COC(=O)c1cc([N+](=O)[O-])ccc1N1CCOCC1
IC50 [4]: 0.617 µM (active)
IC50 [5]: 0.539 µM (active)

CCn1c(SC(C)C)nnc1-c1cc(-c2ccccc2)sc1N
EC50 [6]: > 120 µM (not active)
CC50 [2]: 100 µM (active)
IC50 [3]: 31.1 µM (active)
EC50 [7]: > 120 µM (not active)
EC50 [8]: > 120 µM (not active)

Cc1cc(/C=C2\C(=O)NC(=O)N(Cc3ccccc3Cl)C2=O)c(C)n1-c1ccc(C(=O)O)cc1
AC50 [9]: > 20 µM (inactive)

COCCCNC(=O)C[C@H]1C[C@H](C(=O)N2CCOCC2)[C@@]2(CCC3CCCC3)c3[nH]c4cc(-c5ccco5)ccc4c3CCN2C1=O
IC50 [4]: 9.08 µM (active)
IC50 [5]: 6.51 µM (active)

CN(C)CCNC(=O)c1cccc(-c2cnc3c(NC=O)cc(-c4cccs4)cn23)c1
IC50 [10]: 1.82 µM (active)
AC50 [11]: 15.6 µM (active)
AC50 [12]: 8.36 µM (active)
IC50 [13]: > 66.6 µM (inactive)

CN(C)c1ccc(C=Cc2ccnc3ccccc23)cc1N
AC50 [14]: 26 µM (active)

COc1cccc(-c2cnc3c(NC=O)cc(-c4ccc(S(C)(=O)=O)cc4)cn23)c1
IC50 [4]: 9.95 µM (active)
IC50 [5]: 11.2 µM (active)

O=C(CSc1nc2ccccc2o1)NN=C/C=C/c1ccccc1
IC50 [1]: > 69.5 µM (inactive)
IC50 [15]: > 69.5 µM (inactive)

O=C(C1CCC1)N1CCCCN2[C@@H](CO)[C@H](c3ccc(-c4cccc(F)c4)cc3)[C@@H]2C1
AC50 [16]: 227 nM (active)

Cc1ccccc1-n1c(SCC(=O)N/N=C/C=C/c2ccccc2[N+](=O)[O-])nc2ccccc2c1=O
AC50 [17]: > 195 µM (inactive)
IC50 [1]: 4.51 µM (active)
IC50 [15]: > 69.5 µM (inactive)

Cc1cc(N2CCN(C)CC2)nc2ccc(NC(=S)NCCCN3CCc4ccccc4C3)cc12
AC50 [11]: 28.1 µM (active)
AC50 [12]: 3.85 µM (active)

OC(c1cc(C(F)(F)F)nc2c(C(F)(F)F)cccc12)C1CCCCN1 (stereo not given) [MEFLOQUINE HYDROCHLORIDE]
AC50 [18]: 8.37 µM (active)
IC50 [19]: > 20 µM (inactive)
AC50 [20]: 5.19 µM (active)
AC50 [21]: 7.13 µM (active)
AC50 [23]: 11.6 µM (active)
AC50 [24]: 9.96 µM (active)
